Experimental data from patent US10251395B2, “Substituted furano-/thienocycloalkylamino-2-pyrimidine derivatives and use thereof for controlling undesired plant growth” (Bayer CropScience Aktiengesellschaft, priority 2015, dated 2019).

Experiments:
[1] = logP (HCOOH); format: physicochemical; details: HCOOH
Text: Table 2 (physicochemical characterization of selected synthesis examples)

[2] = system: Setaria viridis; assay: Post-emergence herbicidal effect; format: in vivo; details: assessed visually after about 3 weeks vs untreated controls
How it was run: (§1)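 Greenhouse weeds grown in sandy loam were sprayed at the one-leaf stage, 2–3 weeks after sowing, with WP or EC formulations in 600–800 L/ha water plus 0.2% wetting agent. Damage was scored visually after about 3 weeks as percent activity relative to untreated controls, where 100% means the plants died.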

[3] = system: Abutilon theophrasti; assay: Post-emergence herbicidal effect; format: in vivo; details: assessed visually after about 3 weeks vs untreated controls
How it was run: as §1

[4] = system: Polygonum convolvulus; assay: Post-emergence herbicidal effect; format: in vivo; details: assessed visually after about 3 weeks vs untreated controls
How it was run: as §1

[5] = system: Amaranthus retroflexus; assay: Post-emergence herbicidal effect; format: in vivo; details: assessed visually after about 3 weeks vs untreated controls
How it was run: as §1

[6] = system: Matricaria inodora; assay: Post-emergence herbicidal effect; format: in vivo; details: assessed visually after about 3 weeks vs untreated controls
How it was run: as §1

[7] = system: Stellaria media; assay: Post-emergence herbicidal effect; format: in vivo; details: assessed visually after about 3 weeks vs untreated controls
How it was run: as §1

[8] = system: Ipomoea purpurea; assay: Post-emergence herbicidal effect; format: in vivo; details: assessed visually after about 3 weeks vs untreated controls
How it was run: as §1

[9] = system: Avena fatua; assay: Post-emergence herbicidal effect; format: in vivo; details: assessed visually after about 3 weeks vs untreated controls
How it was run: as §1

[10] = system: Viola tricolor; assay: Post-emergence herbicidal effect; format: in vivo; details: assessed visually after about 3 weeks vs untreated controls
How it was run: as §1

[11] = system: Lolium multiflorum; assay: Post-emergence herbicidal effect; format: in vivo; details: assessed visually after about 3 weeks vs untreated controls
How it was run: as §1

[12] = system: Alopecurus myosuroides; assay: Post-emergence herbicidal effect; format: in vivo; details: assessed visually after about 3 weeks vs untreated controls
How it was run: as §1

[13] = system: Echinochloa crus-galli; assay: Post-emergence herbicidal effect; format: in vivo; details: assessed visually after about 3 weeks vs untreated controls
How it was run: as §1

[14] = system: Veronica persica; assay: Pre-emergence herbicidal effect; format: in vivo; details: scored visually after 3 weeks
How it was run: (§2)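 Visual damage score in % after 3 weeks in the greenhouse, relative to untreated controls (0% like control, 100% plants dead). Compounds were sprayed pre-emergence onto covering soil over seeds sown in sandy loam, as WP or EC in water at 600 to 800 L/ha plus 0.2% wetting agent.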

[15] = system: Setaria viridis; assay: Pre-emergence herbicidal effect; format: in vivo; details: scored visually after 3 weeks
How it was run: as §2

[16] = system: Abutilon theophrasti; assay: Pre-emergence herbicidal effect; format: in vivo; details: scored visually after 3 weeks
How it was run: as §2

[17] = system: Polygonum convolvulus; assay: Pre-emergence herbicidal effect; format: in vivo; details: scored visually after 3 weeks
How it was run: as §2

[18] = system: Amaranthus retroflexus; assay: Pre-emergence herbicidal effect; format: in vivo; details: scored visually after 3 weeks
How it was run: as §2

[19] = system: Matricaria inodora; assay: Pre-emergence herbicidal effect; format: in vivo; details: scored visually after 3 weeks
How it was run: as §2

[20] = system: Stellaria media; assay: Pre-emergence herbicidal effect; format: in vivo; details: scored visually after 3 weeks
How it was run: as §2

[21] = system: Avena fatua; assay: Pre-emergence herbicidal effect; format: in vivo; details: scored visually after 3 weeks
How it was run: as §2

[22] = system: Viola tricolor; assay: Pre-emergence herbicidal effect; format: in vivo; details: scored visually after 3 weeks
How it was run: as §2

[23] = system: Lolium multiflorum; assay: Pre-emergence herbicidal effect; format: in vivo; details: scored visually after 3 weeks
How it was run: as §2

[24] = system: Alopecurus myosuroides; assay: Pre-emergence herbicidal effect; format: in vivo; details: scored visually after 3 weeks
How it was run: as §2

[25] = system: Echinochloa crus-galli; assay: Pre-emergence herbicidal effect; format: in vivo; details: scored visually after 3 weeks
How it was run: as §2

[26] = system: Veronica persica; assay: Post-emergence herbicidal effect; format: in vivo; details: assessed visually after about 3 weeks vs untreated controls
How it was run: as §1

[27] = system: Cyperus esculentus; assay: Pre-emergence herbicidal effect; format: in vivo; details: scored visually after 3 weeks
How it was run: as §2

Nc1nc(NC2CCc3sc(Cl)cc32)ncc1C(F)(F)F (racemic) [compound 256]
logP (HCOOH) [1]: solid; logP (HCOOH): 2.30; 1H NMR (CDCl3, 400 MHZ, δ in ppm): 2.15 (m, 1H, 1H
post-emergence efficacy SETVI ([2]; 80 g/ha): 90%
post-emergence efficacy SETVI ([2]; 320 g/ha): 90%
post-emergence efficacy ABUTH ([3]; 80 g/ha): 90%
post-emergence efficacy ABUTH ([3]; 320 g/ha): 90%
post-emergence efficacy POLCO ([4]; 80 g/ha): 90%
post-emergence efficacy POLCO ([4]; 320 g/ha): 90%
post-emergence efficacy AMARE ([5]; 80 g/ha): 100%
post-emergence efficacy AMARE ([5]; 320 g/ha): 100%
post-emergence efficacy MATIN ([6]; 80 g/ha): 100%
post-emergence efficacy MATIN ([6]; 320 g/ha): 100%
post-emergence efficacy STEME ([7]; 80 g/ha): 100%
post-emergence efficacy STEME ([7]; 320 g/ha): 100%
post-emergence efficacy PHBPU ([8]; 320 g/ha): 100%
post-emergence efficacy AVEFA ([9]; 320 g/ha): 70%
post-emergence efficacy VIOTR ([10]; 80 g/ha): 90%
post-emergence efficacy VIOTR ([10]; 320 g/ha): 90%
post-emergence efficacy LOLMU ([11]; 320 g/ha): 70%
post-emergence efficacy ALOMY ([12]; 320 g/ha): 90%
post-emergence efficacy ECHCG ([13]; 80 g/ha): 100%
post-emergence efficacy ECHCG ([13]; 320 g/ha): 100%
VERPE pre-emergence efficacy (herbicidal activity) ([14]; Dosage 80 g/ha): 100%
VERPE pre-emergence efficacy (herbicidal activity) ([14]; Dosage 320 g/ha): 100%
SETVI pre-emergence efficacy (herbicidal activity) ([15]; Dosage 80 g/ha): 100%
SETVI pre-emergence efficacy (herbicidal activity) ([15]; Dosage 320 g/ha): 100%
ABUTH pre-emergence efficacy (herbicidal activity) ([16]; Dosage 320 g/ha): 100%
POLCO pre-emergence efficacy (herbicidal activity) ([17]; Dosage 80 g/ha): 100%
POLCO pre-emergence efficacy (herbicidal activity) ([17]; Dosage 320 g/ha): 100%
AMARE pre-emergence efficacy (herbicidal activity) ([18]; Dosage 80 g/ha): 100%
AMARE pre-emergence efficacy (herbicidal activity) ([18]; Dosage 320 g/ha): 100%
MATIN pre-emergence efficacy (herbicidal activity) ([19]; Dosage 80 g/ha): 100%
MATIN pre-emergence efficacy (herbicidal activity) ([19]; Dosage 320 g/ha): 100%
STEME pre-emergence efficacy (herbicidal activity) ([20]; Dosage 80 g/ha): 100%
STEME pre-emergence efficacy (herbicidal activity) ([20]; Dosage 320 g/ha): 100%
AVEFA pre-emergence efficacy (herbicidal activity) ([21]; Dosage 320 g/ha): 100%
VIOTR pre-emergence efficacy (herbicidal activity) ([22]; Dosage 80 g/ha): 100%
VIOTR pre-emergence efficacy (herbicidal activity) ([22]; Dosage 320 g/ha): 100%
LOLMU pre-emergence efficacy (herbicidal activity) ([23]; Dosage 320 g/ha): 100%
ALOMY pre-emergence efficacy (herbicidal activity) ([24]; Dosage 80 g/ha): 60%
ALOMY pre-emergence efficacy (herbicidal activity) ([24]; Dosage 320 g/ha): 100%
ECHCG pre-emergence efficacy (herbicidal activity) ([25]; Dosage 80 g/ha): 100%
ECHCG pre-emergence efficacy (herbicidal activity) ([25]; Dosage 320 g/ha): 100%

Cc1cc2c(s1)CCCC2Nc1ncc(C#N)c(N)n1 (stereo not shown) [compound 282]
post-emergence efficacy VERPE ([26]; 80 g/ha): 80%
post-emergence efficacy VERPE ([26]; 320 g/ha): 90%
post-emergence efficacy SETVI ([2]; 80 g/ha): 100%
post-emergence efficacy SETVI ([2]; 320 g/ha): 100%
post-emergence efficacy ABUTH ([3]; 80 g/ha): 90%
post-emergence efficacy ABUTH ([3]; 320 g/ha): 90%
post-emergence efficacy POLCO ([4]; 80 g/ha): 90%
post-emergence efficacy POLCO ([4]; 320 g/ha): 90%
post-emergence efficacy AMARE ([5]; 80 g/ha): 100%
post-emergence efficacy AMARE ([5]; 320 g/ha): 100%
post-emergence efficacy MATIN ([6]; 80 g/ha): 90%
post-emergence efficacy MATIN ([6]; 320 g/ha): 90%
post-emergence efficacy STEME ([7]; 80 g/ha): 100%
post-emergence efficacy STEME ([7]; 320 g/ha): 100%
post-emergence efficacy PHBPU ([8]; 80 g/ha): 80%
post-emergence efficacy PHBPU ([8]; 320 g/ha): 90%
post-emergence efficacy AVEFA ([9]; 80 g/ha): 100%
post-emergence efficacy AVEFA ([9]; 320 g/ha): 100%
post-emergence efficacy VIOTR ([10]; 80 g/ha): 100%
post-emergence efficacy VIOTR ([10]; 320 g/ha): 100%
post-emergence efficacy LOLMU ([11]; 80 g/ha): 100%
post-emergence efficacy LOLMU ([11]; 320 g/ha): 100%
post-emergence efficacy ALOMY ([12]; 80 g/ha): 100%
post-emergence efficacy ALOMY ([12]; 320 g/ha): 100%
post-emergence efficacy ECHCG ([13]; 80 g/ha): 100%
post-emergence efficacy ECHCG ([13]; 320 g/ha): 100%
VERPE pre-emergence efficacy (herbicidal activity) ([14]; Dosage 80 g/ha): 100%
VERPE pre-emergence efficacy (herbicidal activity) ([14]; Dosage 320 g/ha): 100%
SETVI pre-emergence efficacy (herbicidal activity) ([15]; Dosage 80 g/ha): 100%
SETVI pre-emergence efficacy (herbicidal activity) ([15]; Dosage 320 g/ha): 100%
ABUTH pre-emergence efficacy (herbicidal activity) ([16]; Dosage 80 g/ha): 80%
ABUTH pre-emergence efficacy (herbicidal activity) ([16]; Dosage 320 g/ha): 80%
CYPES pre-emergence efficacy (herbicidal activity) ([27]; Dosage 80 g/ha): 80%
CYPES pre-emergence efficacy (herbicidal activity) ([27]; Dosage 320 g/ha): 100%
POLCO pre-emergence efficacy (herbicidal activity) ([17]; Dosage 80 g/ha): 100%
POLCO pre-emergence efficacy (herbicidal activity) ([17]; Dosage 320 g/ha): 100%
AMARE pre-emergence efficacy (herbicidal activity) ([18]; Dosage 80 g/ha): 100%
AMARE pre-emergence efficacy (herbicidal activity) ([18]; Dosage 320 g/ha): 100%
MATIN pre-emergence efficacy (herbicidal activity) ([19]; Dosage 80 g/ha): 100%
MATIN pre-emergence efficacy (herbicidal activity) ([19]; Dosage 320 g/ha): 100%
STEME pre-emergence efficacy (herbicidal activity) ([20]; Dosage 80 g/ha): 100%
STEME pre-emergence efficacy (herbicidal activity) ([20]; Dosage 320 g/ha): 100%
AVEFA pre-emergence efficacy (herbicidal activity) ([21]; Dosage 80 g/ha): 80%
AVEFA pre-emergence efficacy (herbicidal activity) ([21]; Dosage 320 g/ha): 90%
VIOTR pre-emergence efficacy (herbicidal activity) ([22]; Dosage 80 g/ha): 100%
VIOTR pre-emergence efficacy (herbicidal activity) ([22]; Dosage 320 g/ha): 100%
LOLMU pre-emergence efficacy (herbicidal activity) ([23]; Dosage 80 g/ha): 100%
LOLMU pre-emergence efficacy (herbicidal activity) ([23]; Dosage 320 g/ha): 100%
ALOMY pre-emergence efficacy (herbicidal activity) ([24]; Dosage 80 g/ha): 100%
ALOMY pre-emergence efficacy (herbicidal activity) ([24]; Dosage 320 g/ha): 100%
ECHCG pre-emergence efficacy (herbicidal activity) ([25]; Dosage 80 g/ha): 100%
ECHCG pre-emergence efficacy (herbicidal activity) ([25]; Dosage 320 g/ha): 100%
